Data taken from US20150335548A1, “Oral Care Composition” (COLGATE-PALMOLIVE COMPANY, priority 2012, published 2015).
Entries after “also recorded” stand apart in the source; their conditions may differ.

What was measured:
A. viscosus [1] = experiment: Growth inhibition of A. viscosus (optical density over time); format: cell-based
Description: The effects of 1-decyl-3-methylimidazolium (DMIM) chloride on bacterial growth were investigated in vitro. DMIM chloride was incorporated into a prototype mouth rinse as illustrated in Table 17. […] The growth inhibition was measured as a change in optical density over time.
The antibacterial effects of various ionic liquids were determined according to the protocol described in Example 12.

A. viscosus [2] = experiment: Short Interval Kill Test (SIKT); format: cell-based; settings: 0.3, 0.6 and 1 wt % in the prototype mouth rinse
From the text: SIKT determines the kill effect of a test article at a predetermined exposure time. […] The reaction was neutralized after 30 seconds by adding a neutralizing broth. The reaction mixture was further diluted and plated on MCA (Microbial Count Agar) plates for viable bacterial count.

[3] = tested on: 3-day old biofilm of the artificial mouth consortium of bacteria (A. naeslundii, S. oralis, V. parvula, L. casei, F. nucleatum) and S. mutans; experiment: In vitro biofilm removal, 3-day old biofilm (protocol of Example 2); format: cell-based; settings: 3-day old biofilm
Description: The 3-day old biofilm was grown on a 24 well plate using the artificial mouth consortium of bacteria (A. naeslundii, S. oralis, V. parvula, L. casei, F. nucleatum) and S. mutans. To generate the biofilm, plates were inoculated with saliva overnight to form a pellicle. The consortium of bacteria (1 mL) at an OD of ˜0.2 was added to each well. The bacterial media (Tryptic Soy Broth with 6% sucrose) was changed after 48 hours. The 3-day old biofilm was treated with the prototype formulation (500 μL) for 15 minutes on a plate shaker at 300 rpm. After incubation, the supernatant was discarded. The optical density of each well was measured and the percentage reduction in optical density relative to the control (water) was calculated to determine the effect of the prototype formulation on biofilm removal. […]
Water, untreated biofilm, commercially available mouthwash formulations with CPC (Cetyl pyridinium chloride) and a mouthwash containing five enzymes for combatting biofilm acted as […] for the experiment.

dental plaque = experiment: Dissolution of plaque; settings: water-insoluble plaque vortex mixed with ionic liquid at room temperature, centrifuged at 13,000 g
Description: Dental plaque samples were obtained from subjects and treated with water to remove any water soluble actives. The samples were centrifuged at 13,000 g and the supernatant was collected and discarded. The remaining plaque that was insoluble in water was used to evaluate the plaque solubilizing potential of the ionic liquids.
Ionic liquids were added to the plaque sample, and the plaque sample was vortex mixed at room temperature. To ensure that the plaque was not simply suspended in the ionic liquid, the plaque containing vial with the ionic liquid was subsequently centrifuged at 13,000 g.
Plaque may form a suspension when mixed with water and that, on centrifugation, it is visible as an insoluble pellet.

Compound | growth inhibition of A. viscosus, in words (A. viscosus [1]; formulated at 0.312 wt %) | growth inhibition of A. viscosus, in words (A. viscosus [1]; formulated at 1 wt % in prototype mouth rinse of Table 17) | time to kill A. viscosus (A. viscosus [2]) | biofilm removal, comparison in words ([3]; listed as DMIM chloride) | Percent Biofilm Removed ([3]; other ionic liquids) | optical density of A. viscosus culture, 0 h (A. viscosus [1]; 10% concentration in a mouth rinse, 0 h) | optical density of A. viscosus culture, 4 h (A. viscosus [1]; 10% concentration in a mouth rinse, 4 h) | optical density of A. viscosus culture, 22 h (A. viscosus [1]; 10% concentration in a mouth rinse, 22 h) | optical density of A. viscosus culture, 24 h (A. viscosus [1]; 10% concentration in a mouth rinse, 24 h) | plaque dissolution (size of plaque pellet, visual) (dental plaque) | Percent Biofilm Removed ([3]; EMIM-based ionic liquids, […] in base prototype mouth rinse of Table 1)
CCCCCCCCCCn1cc[n+](C)c1.[Cl-] [DMIM Cl, 1-decyl-3-methylimidazolium chloride] | growth inhibition of A. viscosus is maintained | greater growth inhibition of A. viscosus than a 0.075 wt % CPC mouthwash | ≤ 30 s | significantly more effective in removing biofilm than EMIM chloride and BMIM chloride; also recorded: most effective in removing biofilm | 57.3% | – | – | – | – | – | –
CCn1cc[n+](C)c1.[Br-] [EMIM Br, 1-ethyl-3-methylimidazolium bromide] | – | – | – | – | – | 0.1482 | 0.2216 | 0.7598 | 0.8533 | size of the plaque pellet is reduced | 48.6%
